Experiment: gradient 5% acetonitrile 3 min, to 50% in 2 min, to 85% in 15 min, held 3 min, 100 µL/min
Details: column: Zorbax Extend-C18 2.1 x 50 mm; eluents: water / acetonitrile, 0.1% formic acid
In short: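 Standards, all pure, were combined into mixtures of ~100 molecules and run at 100 μL/min on a Zorbax Extend-C18 column (2.1 × 50 mm, 1.8 μm) with water and acetonitrile, each containing 0.1% formic acid. A coupled quadrupole time-of-flight mass spectrometer operated in positive and negative ionization mode. Retention time values come from computationally picked adduct peaks, each inspected manually.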

Row | RP-LC retention time [s] | Structure (SMILES)
1 | 946 | COCCCNC(=O)C1c2ccccc2C(=O)N(C2CCCCC2)C12CCCCC2 (stereo not given)
2 | 639 | Cc1ccc(S(=O)(=O)NCCC(=O)O)cc1C
3 | 1170 | Cc1cccc(C)c1NC(=O)C1CCCN(c2nc3ccccc3nc2C(F)(F)F)C1 (stereo not given)
4 | 790 | Cc1cc(C)cc(N2C(=O)CN(C3CCCC3)[C@H]3CS(=O)(=O)C[C@H]32)c1
5 | 767 | CCc1cc(=O)n(CC(=O)Nc2ccc(C)cc2C)c(N2CCOCC2)n1
6 | 688 | CCCNC(=O)CN1CCN(Cc2ccc(F)cc2)C1=O
7 | 897 | Cn1nc(-c2nnc(-c3ccccc3)o2)c2c1CCN(S(=O)(=O)c1ccc(C#N)cc1)C2
8 | 956 | O=C(NCc1ccc(-c2nc(C3CC3)no2)s1)c1ccc(F)cc1F
9 | 831 | CCc1noc(NC(C)=O)c1-c1ccc(OC)c(S(=O)(=O)Nc2cccc(Cl)c2)c1
10 | 1060 | CCc1ccc(OCc2nc(CCN(C)C(=O)Nc3cc(OC)ccc3OC)no2)cc1
11 | 839 | Cc1ccc2[nH]cc(CCN3CC(C(=O)N4CCN(c5ccccc5)CC4)CC3=O)c2c1 (stereo not given)
12 | 728 | Cc1ccc(NC(=O)c2[nH]c3cc(C)sc3c2CN2CCOCC2)c(F)c1
13 | 655 | CC1CCCN(CC(=O)Nc2nc(-c3ccccc3)cs2)C1 (stereo not given)
14 | 942 | Cc1ccc(NC(=O)N2CCCC(C)(C(=O)NCc3ccccc3C)C2)cc1 (stereo not given)
15 | 720 | COc1ccc(OC)c(S(=O)(=O)N2CCCOCCNC(=O)[C@@H]3CCC[C@@H]32)c1
16 | 681 | Cn1c(=O)n(CCN2CCCCC2)c(=O)c2c1nc1n2CCCN1C1CCCCC1
17 | 697 | CCOc1ccc2nc(C(=O)NC3CC3)cn2n1
18 | 814 | CCS(=O)(=O)c1ccccc1C(=O)Nc1sc(-c2ccccc2)cc1C(N)=O
19 | 1030 | Cc1ccc(-c2nnc(-c3ccc(Cl)c(S(=O)(=O)N4CCOCC4)c3)o2)cc1
20 | 693 | CCC(CO)NCc1ccc(-c2cc(Cl)ccc2Cl)o1 (stereo not given)
21 | 1120 | CCOc1ccccc1N1CCN(C(=O)CSc2nccnc2Oc2ccccc2C)CC1
22 | 647 | Cc1cnc(C(=O)N2CC[C@H](n3c(=O)n(C)c4cccnc43)C2)cn1
23 | 757 | COc1cc(=O)n2c(c1C(=O)Nc1ccc(Br)cc1C)CCCC2

Row | RP-LC retention time [s] | Structure (SMILES)
24 | 959 | COc1ccccc1N1CCN(c2cc(SCC(=O)Nc3ccc(F)cc3C)ncn2)CC1
25 | 996 | CCCc1nc2ccc(NC(=O)NCC)cc2c(=O)n1Cc1ccc(-c2ccccc2)cc1
26 | 891 | O=C(N1CCc2ccccc2C1)C1(c2ccccc2)CCOCC1
27 | 811 | CCn1cc(-c2nc(-c3ccc(OC)c(OC)c3)no2)c(=O)c2cc(F)ccc21
28 | 1100 | COC(=O)c1cccc(C(=O)Nc2ccc(C)cc2Cl)n1
29 | 734 | COC(=O)c1c(NCc2ccc3c(c2)OCO3)c2ccc(F)cc2[nH]c1=O
30 | 752 | COc1cc(NC(=O)N2C[C@@H](F)C[C@H]2C(=O)N2CCc3ccccc3C2)cc(OC)c1
31 | 1130 | Cc1ccc(Sc2nccnc2N2CCCC(C(=O)NCc3ccc(F)cc3F)C2)cc1 (stereo not given)
32 | 853 | COC(=O)c1cc2n(n1)CC(C)(C(=O)NC1CCCCC1)N(c1ccccc1F)C2=O (stereo not given)
33 | 766 | COc1ccc(S(=O)(=O)N2CCCC(C(=O)N3CCOCC3)C2)cc1Cl (stereo not given)
34 | 962 | Cc1ccc(C)c(NC(=O)C2CCC(=O)N2S(=O)(=O)c2ccc(C)c(C)c2)c1 (stereo not given)
35 | 656 | Cc1ccn2cc(-c3ccc(NC(=O)c4ccccc4I)cc3)nc2n1
36 | 915 | CC(C)c1noc(-c2ccc(-n3cnc(C(=O)NC4CCCC4)c3)nc2)n1
37 | 1310 | Cc1sc2ncnc(N3CCCC(C)C3)c2c1C(=O)Nc1ccc(Br)cc1 (stereo not given)
38 | 570 | c1cc(-c2noc(COC3CCCN(Cc4ccoc4)C3)n2)ccn1 (stereo not given)
39 | 645 | CCCc1cc(N2CCN(C(=O)COc3ccc(F)cc3)CC2)nc2nnc(C)n12
40 | 640 | O=C(c1cc(-c2ccco2)[nH]n1)N1CCN(c2ncccn2)CC1
41 | 674 | Cc1ccc(-c2nc3cccnc3n2CCCNC(=O)NCc2ccco2)cc1
42 | 932 | Cc1cc(C)n(CC(=O)N2CCN(c3ccccc3)CC2)c1-c1nc(C2CC2)no1
43 | 801 | O=C(Nc1ccc2c(c1)OCO2)C1CC(=O)N(CCc2c[nH]c3ccc(Cl)cc23)C1 (stereo not given)
44 | 800 | O=C(NCc1ccc(Cl)cc1)C1CCCN(S(=O)(=O)c2c[nH]c(C(=O)N3CCCC3)c2)C1 (stereo not given)
45 | 948 | Cc1oc(-c2ccc(NC(=O)c3ccc(Br)cc3)cc2)nc1Cn1cccn1
46 | 1030 | Cc1cc(NC(=O)CCS(=O)(=O)c2ccc(F)cc2)n(-c2nc3ccccc3s2)n1

Row | RP-LC retention time [s] | Structure (SMILES)
47 | 861 | Cc1ccc(C(=O)N(C)Cc2cccnc2Oc2ccccc2)cn1
48 | 931 | CCn1nccc1-c1cccc(-c2noc(CNS(=O)(=O)c3ccc(F)cc3)n2)c1
49 | 671 | O=c1cc(CN(Cc2ccccc2)Cc2ccccc2)nc2ccccn12
50 | 574 | COc1cc(Cl)ccc1C(=O)N1CCCN(C2CCN(CC3CC3)C2=O)CC1 (stereo not given)
51 | 831 | CS(=O)(=O)N1CCC(OC2CCN(C(=O)Nc3cccc(Cl)c3)CC2)CC1
52 | 1150 | CCOc1nc2ccccc2nc1N1CCCC(C(=O)N2CCSCC2)C1 (stereo not given)
53 | 865 | COCc1cc(=O)n(CC(=O)Nc2ccc(Cl)cc2)c(N2CCOCC2)n1
54 | 1210 | O=S(=O)(Cc1ccc(Cl)cc1)N1CCc2nc(-c3ccc(Cl)cc3)ncc2C1
55 | 725 | CCCNC(=O)C1c2ccccc2CCN1C(=O)C1CC1 (stereo not given)
56 | 576 | CCCN1CCN(CCCNc2nc(-c3ccc(OC)cc3)nc3ccccc23)CC1
57 | 792 | COC(=O)C(C)NC(=O)NCc1cccn1Cc1cccc(F)c1 (stereo not given)
58 | 762 | Cc1ccc2c(=O)c(C(=O)N3CCC(C)CC3)cn(CC(=O)NC3CCCCC3)c2n1
59 | 710 | COCCC1CCOC2(CCN(C(=O)C3CC3)CC2)C1 (stereo not given)
60 | 577 | CC(=O)N1CCCC1CCc1ncc(C)n1C(C)C (stereo not given)
61 | 803 | COC(=O)c1ccccc1NC(=O)C1CN(C(=O)c2ccc(F)c(F)c2)C1
62 | 644 | CCOC(=O)N1CCN(S(=O)(=O)c2cn(C)nc2C)CC1
63 | 640 | CCC(=O)N1c2ccc(S(=O)(=O)CCC(=O)NC3CCN(Cc4ccccc4)CC3)cc2CC1C (stereo not given)
64 | 626 | Cc1ccsc1C(=O)N1CCC(C2CCN(S(C)(=O)=O)CC2)C1 (stereo not given)
65 | 814 | Cc1cccc(-c2nc(-c3ccc(-n4ccnc4)nc3)no2)c1
66 | 770 | CCCNC(=O)N1CC(c2nc(-c3ccccc3)no2)C2(CCOCC2)C1 (stereo not given)
67 | 856 | CCC(C)NC(=O)Cc1cccn1-c1ccc(F)cc1 (stereo not given)
68 | 908 | O=C(Nc1ccc(F)cc1)c1ccc(Cl)s1
69 | 684 | Cn1c(=O)n([C@H]2CCCN(C(=O)Nc3ccc4c(c3)OCCO4)C2)c2ncccc21

Row | RP-LC retention time [s] | Structure (SMILES)
70 | 680 | Cc1nnc2c(=O)n(CC(=O)NCc3ccc(F)cc3F)c3cccnc3n12
71 | 581 | CCc1ccc(NC(=O)N2CCc3[nH]cnc3C2c2ccncc2)cc1 (stereo not given)
72 | 744 | CSc1ccc(-c2nc3cnccn3c2Nc2cccc(C(=O)O)c2)cc1
73 | 680 | O=C(NCc1ccccc1F)C1CCCN(c2cnc3nccnc3c2)C1 (stereo not given)
74 | 680 | O=C(Cc1cc(-c2ccc3c(c2)OCCO3)on1)N1CCN(C(=O)c2ccco2)CC1
75 | 1120 | O=c1c2ccccc2c(-c2nc(-c3cccnc3)no2)cn1-c1ccc(Cl)cc1
76 | 1130 | O=C(c1nc(-c2cccs2)cs1)N1CCN(c2ccccc2)CC1
77 | 856 | Cc1ccc(C)c(CNC(=O)c2ccc(NC(=O)C3CC3)cc2N2CCOCC2)c1
78 | 681 | Cc1ccc(-c2csc(NC(=O)CN3CCN(C(=O)C4CCCO4)CC3)n2)cc1 (stereo not given)
79 | 742 | Cc1ccc(CN2CCN(CC(=O)Nc3ccc4c(c3)OCO4)C(=O)C2=O)cc1
80 | 1120 | Cc1nn(C(C)C(=O)Nc2ccc(Cl)cn2)c(=O)c2c(-n3cccc3)n(-c3ccccc3)nc12 (stereo not given)
81 | 826 | Cc1ccc(CS(=O)(=O)N2CCC(c3cc(N)on3)CC2)cc1C
82 | 700 | COc1ccc(CCNC(=O)CSc2nnc(NC(=O)CC(C)C)s2)cc1OC
83 | 853 | Cc1ccc(-c2nnc(N3CCC(C(=O)NCc4ccc(C)o4)CC3)o2)cc1
84 | 1070 | CCCn1c(=O)c(C)nc2cc(-c3noc(COc4ccccc4)n3)ccc21
85 | 840 | CN(C(=O)CCCOc1ccc2[nH]c(=O)ccc2c1)C1CCCCC1
86 | 940 | O=C(NCc1ccccc1)C1CCCCN1S(=O)(=O)c1ccc(F)cc1 (stereo not given)
87 | 1190 | O=S(=O)(c1cc(-c2nnc(-c3ccc(F)cc3)o2)ccc1Cl)N1CCCCC1
88 | 959 | COc1cccc(-c2nc(-c3ccc4c(c3)oc(=O)n4C)no2)c1OC
89 | 1140 | COc1ccc2c(c1)-c1nc(NC(=O)c3ccccc3Br)sc1CC2
90 | 610 | CC(C)n1cnc2cc(CNC(=O)c3cc(F)ccc3F)ccc21

Reference: the METLIN SMRT retention time set (Domingo-Almenara et al. 2019)
